Results from PubChem BioAssay (NCI).
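Test compounds were applied to cells in 96-well plates for 48 hours at 5 doses. Abbreviation: GI50, concentration required for 50% inhibition of growth. TGI marks complete inhibition of growth.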

How the values were obtained:
Assay in all cases: inhibition of tumour cell growth, NCI panel, 48 h
[1] = test system: UO-31 renal
[2] = test system: U251 CNS
[3] = test system: HCT-15 colon
[4] = test system: UACC-62 melanoma
[5] = test system: HOP-92 NSCLC
[6] = test system: RPMI-8226 leukemia
[7] = test system: COLO 205 colon
[8] = test system: TK-10 renal
[9] = test system: DU-145 prostate
[10] = test system: A498 renal
[11] = test system: SN12C renal
[12] = test system: NCI-H522 lung
[13] = test system: EKVX NSCLC
[14] = test system: SF-268 CNS
[15] = test system: OVCAR-5 ovarian
[16] = test system: ACHN renal
[17] = test system: UACC-257 melanoma
[18] = test system: OVCAR-8 ovarian
[19] = test system: SK-MEL-28 melanoma
[20] = test system: MALME-3M melanoma
[21] = test system: HT29 colon
[22] = test system: 786-0 renal
[23] = test system: KM12 colon
[24] = test system: HS 578T breast
[25] = test system: NCI-H460 lung
[26] = test system: RXF 393 renal
[27] = test system: HOP-62 NSCLC
[28] = test system: HCC-2998 colon
[29] = test system: SK-MEL-2 melanoma
[30] = test system: PC-3 prostate
[31] = test system: K-562 leukemia
[32] = test system: MDA-MB-231 breast
[33] = test system: MDA-MB-435
[34] = test system: LOX IMVI melanoma
[35] = test system: SNB-75 CNS
[36] = test system: BT-549 breast
[37] = test system: SF-539 CNS
[38] = test system: NCI-H23 lung
[39] = test system: MCF7 breast
[40] = test system: SR leukemia
[41] = test system: MOLT-4 leukemia
[42] = test system: NCI/ADR-RES ovarian
[43] = test system: SW-620 colon
[44] = test system: SK-MEL-5 melanoma
[45] = test system: A549 NSCLC
[46] = test system: SF-295 CNS
[47] = test system: HCT-116 colon
[48] = test system: M14 melanoma
[49] = test system: OVCAR-3 ovarian
[50] = test system: T-47D breast
[51] = test system: IGROV1 ovarian
[52] = test system: SNB-19 CNS
[53] = test system: SK-OV-3 ovarian
[54] = test system: OVCAR-4 ovarian
[55] = test system: CAKI-1 renal
[56] = test system: CCRF-CEM leukemia

CC(=O)NC1C(O[C@H]2C[C@H]3[C@@H]4CC=C5C[C@@H](O)CC[C@]5(C)[C@H]4CC[C@]3(C)[C@H]2[C@H](C)C(=O)CCC(C)C)OCC(O)C1O (some centres not stated)
GI50 [1]: 1.18 µM
TGI [1]: 3.52 µM
GI50 [2]: 2.34 µM
TGI [2]: 11.5 µM
GI50 [3]: 4.38 µM
TGI [3]: 10.5 µM
GI50 [4]: 0.913 µM
TGI [4]: 2.21 µM
GI50 [5]: 5.1 µM
TGI [5]: 15.5 µM
GI50 [6]: 0.593 µM
TGI [6]: 2.06 µM
GI50 [7]: 2.13 µM
TGI [7]: 8.75 µM
GI50 [8]: 13.9 µM
TGI [8]: > 42.5 µM
GI50 [9]: 5.89 µM
TGI [9]: > 42.5 µM
GI50 [10]: 0.977 µM
TGI [10]: 2.88 µM
GI50 [11]: 8.58 µM
TGI [11]: 26.6 µM
GI50 [12]: 8.72 µM
TGI [12]: 18.8 µM
GI50 [13]: 1.97 µM
TGI [13]: 9.37 µM
GI50 [14]: 2.31 µM
TGI [14]: 11.2 µM
GI50 [15]: 6.34 µM
TGI [15]: 20.1 µM
GI50 [16]: 3.75 µM
TGI [16]: > 42.5 µM
GI50 [17]: 1.4 µM
TGI [17]: 3.55 µM
GI50 [18]: 15.7 µM
TGI [18]: > 42.5 µM
GI50 [19]: 0.928 µM
TGI [19]: 2.78 µM
GI50 [20]: 2.33 µM
TGI [20]: 9.78 µM
GI50 [21]: 5.29 µM
TGI [21]: 15.3 µM
GI50 [22]: 0.553 µM
TGI [22]: 2.21 µM
GI50 [23]: 6.27 µM
TGI [23]: > 42.5 µM
GI50 [24]: 0.88 µM
TGI [24]: 4.09 µM
GI50 [25]: 1.71 µM
TGI [25]: 6.1 µM
GI50 [26]: 0.398 µM
TGI [26]: 1.41 µM
GI50 [27]: 2.18 µM
TGI [27]: 8.31 µM
GI50 [28]: 6.46 µM
TGI [28]: 14.6 µM
GI50 [29]: 1.35 µM
TGI [29]: 4.11 µM
GI50 [30]: 2.05 µM
TGI [30]: 10.3 µM
GI50 [31]: 1.35 µM
TGI [31]: 5.16 µM
GI50 [32]: 3.29 µM
TGI [32]: 12.4 µM
GI50 [33]: 2.06 µM
TGI [33]: 8.73 µM
GI50 [34]: 1.45 µM
TGI [34]: 5.79 µM
GI50 [35]: 0.909 µM
TGI [35]: 10.9 µM
GI50 [36]: 0.776 µM
TGI [36]: 6.96 µM
GI50 [37]: 0.568 µM
TGI [37]: 2.33 µM
GI50 [38]: 4.59 µM
TGI [38]: 18.5 µM
GI50 [39]: 2.44 µM
TGI [39]: 10.4 µM
GI50 [40]: 1.56 µM
TGI [40]: 22.8 µM
GI50 [41]: 1.22 µM
TGI [41]: 3.11 µM
GI50 [42]: 13.1 µM
TGI [42]: > 42.5 µM
GI50 [43]: 3.21 µM
TGI [43]: 9.78 µM
GI50 [44]: 1.85 µM
TGI [44]: 6.49 µM
GI50 [45]: 5.45 µM
TGI [45]: 15.3 µM
GI50 [46]: 0.5 µM
TGI [46]: 1.23 µM
GI50 [47]: 1.39 µM
TGI [47]: 5.82 µM
GI50 [48]: 0.732 µM
TGI [48]: 1.57 µM
GI50 [49]: 5.2 µM
TGI [49]: 34 µM
GI50 [50]: 2.28 µM
TGI [50]: 30.9 µM
GI50 [51]: 3.37 µM
TGI [51]: > 42.5 µM
GI50 [52]: 3.31 µM
TGI [52]: 11 µM
GI50 [53]: 2.01 µM
TGI [53]: 8.39 µM
GI50 [54]: 5.31 µM
TGI [54]: 41 µM
GI50 [55]: 1.53 µM
TGI [55]: 6.75 µM
GI50 [56]: 1.25 µM
TGI [56]: 4.15 µM
